According to patent US6984718B2, “Fluorescence dyes and their applications for whole-cell fluorescence screening assays for caspases, peptidases, proteases and other enzymes and the use thereof” (Cytovia, Inc., priority 1998, dated 2006):
Blank lines part the entries; values can stand above or below the compound they belong to.

Legend:
[1] = Fluorescence standard curve of dye under cell-free conditions (fluorescent microplate reader); assay type: physicochemical
Experimental: A standard curve consisting of 7 concentrations of N-pentafluorobenzoyl-Rhodamine 110 (0.5 to 20 μM) in a volume of 100 μL was prepared. The fluorescence of each concentration was measured (in triplicate) using a BioTek fluorescent microplate reader, and the signal was plotted as a function of dye concentration. The N-pentafluorobenzoyl-Rhodamine 110 curve was compared to a standard curve of R110 fluorescence prepared in the same way.

[2] = tested on: aminopeptidases; experiment: Cleavage of substrate by HL-60 cell lysate (aminopeptidases); assay type: biochemical; details: 37° C.; for fluorescent signal after incubation with cell lysate: HL-60 cell lysate
Experimental: N-Gly-R110-PFB was incubated with a lysate made from HL-60 cells, and the amount of fluorescence was measured at various times after incubation at 37° C. Parallel samples were run using the control substrate, N-Cbz-Gly-R110-PFB.

[3] = tested on: HL-60 cells; experiment: Staining of whole, live HL-60 cells with aminopeptidase substrate; assay type: cell-based; details: 10 μM, 2 hours at 37° C.
Experimental: HL-60 cells (about 2×10^6) were incubated with 10 μM of N-Gly-R110-PFB for 2 hours at 37° C. in a CO2 incubator. Parallel samples were similarly incubated with the amino terminal-blocked compound, N-Cbz-Gly-R110. At the end of the incubation, the cells were harvested by centrifugation and resuspended in 50 μL of fresh medium without substrate. Aliquots of each cell suspension were placed in microslides and viewed on a Nikon inverted microscope with epifluorescent illumination.

[4] = tested on: Jurkat T leukemia cells; experiment: Whole cell assay: cleavage of caspase-3 substrate in apoptotic Jurkat cells, flow cytometry; assay type: cell-based, human
Experimental: Jurkat T leukemia cells were grown in RPMI 1640 media (Life Technologies, Inc.) +10% FCS (Sigma Chemical Company) in a 5% CO2-95% humidity incubator at 37° C., and maintained at a cell density between 4 and 8×10^5 cells/ml. Cells were harvested at 200×g and resuspended at 1×10^6 cells/ml into RPMI 1640 media containing 10% FCS and 1 ml each were dispensed in 2-wells of a 6-well plate. The apoptosis inducer staurosporine was added at 0.5 μg/ml concentration and the plate was incubated for 2 hrs at 37° C. in a 5% CO2-95% humidity incubator. Cells were pelleted and incubated with 50 μM of substrate Ac-DEVD-R110-TFB (SEQ ID NO:5) for 2 hrs at 37° C. in serum-free RPMI medium. 500 μl PBS was added and samples were analyzed by flow cytometry. All flow cytometry analyses were performed on a FACScalibur (Becton Dickinson) using CellQuest analysis software.
The apoptosis inducer anti-Fas antibody (CH-11; MBL) was added at 200 ng/ml concentration and the plate was incubated for 2hrs at 37° C. in a 5% CO2-95% humidity incubator. Cells were pelleted and incubated with 50 μM of substrate Ac-DEVD-R110-TFB (SEQ ID NO:5) for 2 hrs at 37° C. in serum-free RPMI medium. 500 μl PBS was added and samples were analyzed by flow cytometry.
A pan-caspase inhibitor cbz-Val-Asp-fink(see W099/18781) was added to one of the wells. The apoptosis inducer staurosporine was added with and without the caspase inhibitor at 0.5 μg/ml concentration and the plate was incubated for 2 hrs at 37° C. in a 5% CO2-95% humidity incubator. Cells were pelleted and incubated with 50 μM of substrate Ac-DEVD-R110-TFB (SEQ ID NO:5) for 2hr at 37° C. in serum-free RPMI medium. 500 μl PBS was added and samples were analyzed by flow cytometry.

[5] = target: T1, recombinant caspase-3 (Homo sapiens, UniProt P42574); experiment: Cleavage of fluorogenic substrate by recombinant caspase-3, cell-free; assay type: biochemical
T1 sequence (P42574 29-175 limits assumed): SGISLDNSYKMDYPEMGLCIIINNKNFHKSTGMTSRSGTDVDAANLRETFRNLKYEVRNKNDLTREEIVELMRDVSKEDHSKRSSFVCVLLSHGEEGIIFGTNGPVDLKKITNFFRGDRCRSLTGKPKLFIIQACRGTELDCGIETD
T1 sequence (P42574 176-277 limits assumed): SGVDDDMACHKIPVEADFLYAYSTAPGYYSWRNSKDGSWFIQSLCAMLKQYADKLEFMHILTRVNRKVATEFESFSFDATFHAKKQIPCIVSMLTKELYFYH
Experimental: The cleavage of N-(Ac-DEVD)-N′-(2,3,4,5-tetrafluorobenzoyl)-R110 (SEQ ID NO:5) (Ac-DEVD-R110-TFB) (SEQ ID NO:5) by caspase-3 was tested in a cell-free assay using recombinant enzyme. 10 μM of substrate was incubated with recombinant caspase-3 for 3 hours at 37° C. Control reactions included one sample with no enzyme (Background value) and one sample incubated in the presence of the caspase inhibitor, Ac-DEVD-CHO (SEQ ID NO:5) (Non-specific value).

[6] = tested on: HL-60 lysates; experiment: Cleavage of Z-DEVD-R110-PFB by HL-60 lysates; assay type: biochemical

higher fluorescence of R110 than N-pentafluorobenzoyl-Rhodamine 110 ([1]; each concentration tested, 0.5 to 20 μM, cell-free): 20 to 50 fold
Compound: Cl.N=c1ccc2c(-c3ccccc3C(=O)O)c3ccc(N)cc3oc-2c1 [Rhodamine 110, reference compound]

Compound: O=C(CNC(=O)OCc1ccccc1)Nc1ccc2c(c1)Oc1cc(NC(=O)c3c(F)c(F)c(F)c(F)c3F)ccc1C21OC(=O)c2ccccc21 (stereo not drawn) [N-Cbz-Gly-R110-PFB, N-(Z-Gly)-N′-pentafluorobenzoyl-Rhodamine 110]
fluorescent signal after incubation with cell lysate [2]: did not give a signal
fluorescent signal after incubation with buffer only (no lysate) [2]: did not give a signal
fluorescence of whole cells incubated with substrate [3]: did not fluoresce above background levels

Compound: CC(C)[C@H](NC(=O)OCc1ccccc1)C(=O)NC(CC(=O)O)C(=O)CF (stereo partly drawn) [cbz-Val-Asp-fink]
inhibition of staurosporine induced cleavage of Ac-DEVD-R110-TFB in whole cells ([4]; staurosporine 0.5 μg/ml, 2 hrs): can be inhibited by the pan-caspase inhibitor

Compound: Br.NCC(=O)Nc1ccc2c(c1)Oc1cc(NC(=O)c3c(F)c(F)c(F)c(F)c3F)ccc1C21OC(=O)c2ccccc21 (stereo not drawn) [N-Gly-R110-PFB, N-Gly-N′-pentafluorobenzoyl-Rhodamine 110 HBr]
fluorescent signal after incubation with cell lysate [2]: strong fluorescent signal
fluorescent signal after incubation with buffer only (no lysate) [2]: very weak fluorescent signal
fluorescence of whole cells incubated with substrate [3]: strong, homogeneously distributed, yellowish-green fluorescence

increase in fluorescence over background and non-specific values ([5]; 10 μM substrate, recombinant caspase-3, 3 hours at 37° C.): roughly 50 fold
Compound: CC(=O)N[C@@H](CC(=O)O)C(=O)N[C@@H](CCC(=O)O)C(=O)N[C@H](C(=O)N[C@@H](CC(=O)O)C(=O)Nc1ccc2c(c1)Oc1cc(NC(=O)c3cc(F)c(F)c(F)c3F)ccc1C21OC(=O)c2ccccc21)C(C)C (stereo partly drawn) [Ac-DEVD-R110-TFB, N-(Ac-Asp-Glu-Val-Asp)-N′-(2,3,4,5-tetrafluorobenzoyl)-Rhodamine 110]
cleavage of substrate under whole cell assay conditions, anti-Fas antibody induced apoptosis ([4]; anti-Fas antibody 200 ng/ml 2 hrs, then 50 μM substrate 2 hrs at 37° C.): cleavage
cleavage of substrate under whole cell assay conditions, staurosporine induced apoptosis ([4]; staurosporine 0.5 μg/ml 2 hrs, then 50 μM substrate 2 hrs at 37° C.): cleavage

Compound: Nc1ccc2c(c1)Oc1cc(NC(=O)c3c(F)c(F)c(F)c(F)c3F)ccc1C21OC(=O)c2ccccc21 (stereo not drawn) [N-pentafluorobenzoyl-Rhodamine 110, N-Pentafluorobenzoyl-Rhodamine 110]
fluorescence compared to Rhodamine 110 ([1]; cell-free conditions): weaker fluorescent dye compared to Rhodamine 110

Compound: CN[C@@H]1C[C@H]2O[C@@](C)([C@@H]1OC)n1c3ccccc3c3c4c(c5c6ccccc6n2c5c31)C(=O)NC4 [staurosporine]
induction of apoptosis read out as cleavage of Ac-DEVD-R110-TFB ([4]; inducer at 0.5 μg/ml, 2 hrs): leads to cleavage of the caspase-3 substrate

increase in fluorescence over the uncleaved substrate ([5]; recombinant caspase-3): greater than 10 fold
Compound: CC(C)[C@H](NC(=O)[C@H](CCC(=O)O)NC(=O)[C@H](CC(=O)O)NC(=O)OCc1ccccc1)C(=O)N[C@@H](CC(=O)O)C(=O)Nc1ccc2c(c1)Oc1cc(NC(=O)c3c(F)c(F)c(F)c(F)c3F)ccc1C21OC(=O)c2ccccc21 (stereo partly drawn) [Z-DEVD-R110-PFB, N-(Z-Asp-Glu-Val-Asp)-N′-pentafluorobenzoyl-Rhodamine 110]
cleavage by lysate from apoptotic HL-60 cells [6]: readily cleaved
